Reference: PubChem BioAssay (NCI)
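Following 48 hours of exposure in 96-well plates, responses at five concentrations were used to interpolate endpoints linearly. The concentration for 50% growth inhibition is given as GI50. At the TGI there is no net growth.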

Tests used:
Assay in all cases: NCI-60 cell line screen, 48 h
SK-OV-3 ovarian = tested on: SK-OV-3 ovarian
M14 melanoma = tested on: M14 melanoma
OVCAR-3 ovarian = tested on: OVCAR-3 ovarian
786-0 renal = tested on: 786-0 renal
MCF7 breast = tested on: MCF7 breast
CCRF-CEM leukemia = tested on: CCRF-CEM leukemia
HCT-116 colon = tested on: HCT-116 colon
DU-145 prostate = tested on: DU-145 prostate
UACC-257 melanoma = tested on: UACC-257 melanoma
MALME-3M melanoma = tested on: MALME-3M melanoma
SF-268 CNS = tested on: SF-268 CNS
TK-10 renal = tested on: TK-10 renal
CAKI-1 renal = tested on: CAKI-1 renal
HT29 colon = tested on: HT29 colon
SK-MEL-2 melanoma = tested on: SK-MEL-2 melanoma
SF-539 CNS = tested on: SF-539 CNS
HCC-2998 colon = tested on: HCC-2998 colon
MOLT-4 leukemia = tested on: MOLT-4 leukemia
SN12C renal = tested on: SN12C renal
UO-31 renal = tested on: UO-31 renal
MDA-MB-435 = tested on: MDA-MB-435
ACHN renal = tested on: ACHN renal
HOP-62 NSCLC = tested on: HOP-62 NSCLC
HOP-92 NSCLC = tested on: HOP-92 NSCLC
SR leukemia = tested on: SR leukemia
HCT-15 colon = tested on: HCT-15 colon
HL-60(TB) leukemia = tested on: HL-60(TB) leukemia
KM12 colon = tested on: KM12 colon
LOX IMVI melanoma = tested on: LOX IMVI melanoma
SNB-75 CNS = tested on: SNB-75 CNS
OVCAR-4 ovarian = tested on: OVCAR-4 ovarian
U251 CNS = tested on: U251 CNS
SK-MEL-28 melanoma = tested on: SK-MEL-28 melanoma
BT-549 breast = tested on: BT-549 breast
NCI-H226 lung = tested on: NCI-H226 lung
PC-3 prostate = tested on: PC-3 prostate
MDA-MB-231 breast = tested on: MDA-MB-231 breast
NCI/ADR-RES ovarian = tested on: NCI/ADR-RES ovarian
NCI-H460 lung = tested on: NCI-H460 lung
SK-MEL-5 melanoma = tested on: SK-MEL-5 melanoma
UACC-62 melanoma = tested on: UACC-62 melanoma
K-562 leukemia = tested on: K-562 leukemia
OVCAR-5 ovarian = tested on: OVCAR-5 ovarian
OVCAR-8 ovarian = tested on: OVCAR-8 ovarian
SW-620 colon = tested on: SW-620 colon
HS 578T breast = tested on: HS 578T breast
SNB-19 CNS = tested on: SNB-19 CNS
COLO 205 colon = tested on: COLO 205 colon
A498 renal = tested on: A498 renal
A549 NSCLC = tested on: A549 NSCLC
RPMI-8226 leukemia = tested on: RPMI-8226 leukemia
T-47D breast = tested on: T-47D breast
RXF 393 renal = tested on: RXF 393 renal
EKVX NSCLC = tested on: EKVX NSCLC
NCI-H23 lung = tested on: NCI-H23 lung
IGROV1 ovarian = tested on: IGROV1 ovarian
SF-295 CNS = tested on: SF-295 CNS

Work on `COc1cc(OC)c(/C=C/C(=O)c2c(OC)cccc2OC)c(OC)c1` yielded a GI50 (SK-OV-3 ovarian) of 790 nM, a TGI (SK-OV-3 ovarian) of over 100000 nM and a GI50 (M14 melanoma) of 441 nM. For the same compound, the TGI (M14 melanoma) was 2630 nM, the GI50 (OVCAR-3 ovarian) was 431 nM and the GI50 (786-0 renal) was 536 nM. It also gave a TGI (786-0 renal) of 3890 nM, a GI50 (MCF7 breast) of 392 nM and a TGI (MCF7 breast) of over 100000 nM. For the same compound, the GI50 (CCRF-CEM leukemia) was 1230 nM, the TGI (CCRF-CEM leukemia) was over 100000 nM and the GI50 (HCT-116 colon) was 394 nM. It also gave a TGI (HCT-116 colon) of over 100000 nM, a GI50 (DU-145 prostate) of 2010 nM and a TGI (DU-145 prostate) of over 29300 nM. The TGI (UACC-257 melanoma) was over 100000 nM, the GI50 (MALME-3M melanoma) was 450 nM and the TGI (MALME-3M melanoma) was over 100000 nM. For the same compound, the GI50 (SF-268 CNS) was 1140 nM, the TGI (SF-268 CNS) was over 42100 nM and the GI50 (TK-10 renal) was 5030 nM. It also gave a TGI (TK-10 renal) of over 100000 nM, a GI50 (CAKI-1 renal) of 463 nM and a TGI (CAKI-1 renal) of 97000 nM. It also gave a GI50 (HT29 colon) of 398 nM, a TGI (HT29 colon) of over 100000 nM and a GI50 (SK-MEL-2 melanoma) of 807 nM. It also gave a TGI (SK-MEL-2 melanoma) of over 100000 nM, a GI50 (SF-539 CNS) of 533 nM and a TGI (SF-539 CNS) of 4410 nM. For the same compound, the GI50 (HCC-2998 colon) was 1150 nM, the TGI (HCC-2998 colon) was 6910 nM and the GI50 (MOLT-4 leukemia) was 1170 nM. The TGI (MOLT-4 leukemia) was over 100000 nM, the GI50 (SN12C renal) was 1100 nM and the TGI (SN12C renal) was over 100000 nM. The GI50 (UO-31 renal) was 899 nM, the TGI (UO-31 renal) was over 100000 nM and the GI50 (MDA-MB-435) was 263 nM. The TGI (MDA-MB-435) was 1090 nM, the GI50 (ACHN renal) was 703 nM and the TGI (ACHN renal) was over 100000 nM. For the same compound, the GI50 (HOP-62 NSCLC) was 742 nM, the TGI (HOP-62 NSCLC) was over 100000 nM and the GI50 (HOP-92 NSCLC) was 222 nM. It also gave a GI50 (SR leukemia) of 517 nM, a TGI (SR leukemia) of over 100000 nM and a GI50 (HCT-15 colon) of 482 nM. The TGI (HCT-15 colon) was over 100000 nM, the GI50 (HL-60(TB) leukemia) was 348 nM and the TGI (HL-60(TB) leukemia) was 1820 nM. It also gave a GI50 (KM12 colon) of 590 nM, a TGI (KM12 colon) of over 26000 nM and a GI50 (LOX IMVI melanoma) of 566 nM. The TGI (LOX IMVI melanoma) was over 100000 nM, the GI50 (SNB-75 CNS) was 339 nM and the GI50 (OVCAR-4 ovarian) was 19700 nM. For the same compound, the TGI (OVCAR-4 ovarian) was over 100000 nM, the GI50 (U251 CNS) was 592 nM and the TGI (U251 CNS) was over 100000 nM. The GI50 (SK-MEL-28 melanoma) was 1010 nM, the TGI (SK-MEL-28 melanoma) was over 21300 nM and the GI50 (BT-549 breast) was 300 nM. The TGI (BT-549 breast) was 1840 nM, the GI50 (NCI-H226 lung) was 1990 nM and the TGI (NCI-H226 lung) was over 100000 nM. The GI50 (PC-3 prostate) was 1170 nM, the TGI (PC-3 prostate) was over 100000 nM and the GI50 (MDA-MB-231 breast) was 1070 nM. For the same compound, the TGI (MDA-MB-231 breast) was over 100000 nM, the GI50 (NCI/ADR-RES ovarian) was 387 nM and the TGI (NCI/ADR-RES ovarian) was over 25800 nM. The GI50 (NCI-H460 lung) was 393 nM, the TGI (NCI-H460 lung) was over 20300 nM and the GI50 (SK-MEL-5 melanoma) was 348 nM. The TGI (SK-MEL-5 melanoma) was 2490 nM, the GI50 (UACC-62 melanoma) was 362 nM and the TGI (UACC-62 melanoma) was 3060 nM. The GI50 (K-562 leukemia) was 444 nM, the TGI (K-562 leukemia) was over 100000 nM and the GI50 (OVCAR-5 ovarian) was 2170 nM. The TGI (OVCAR-5 ovarian) was over 100000 nM, the GI50 (OVCAR-8 ovarian) was 1430 nM and the TGI (OVCAR-8 ovarian) was over 100000 nM. It also gave a GI50 (SW-620 colon) of 375 nM, a TGI (SW-620 colon) of over 32600 nM and a GI50 (HS 578T breast) of 1280 nM. The TGI (HS 578T breast) was over 36300 nM, the GI50 (SNB-19 CNS) was 775 nM and the TGI (SNB-19 CNS) was over 100000 nM. The GI50 (COLO 205 colon) was 619 nM, the GI50 (A498 renal) was 308 nM and the GI50 (A549 NSCLC) was 907 nM. For the same compound, the TGI (A549 NSCLC) was over 100000 nM, the GI50 (RPMI-8226 leukemia) was 666 nM and the TGI (RPMI-8226 leukemia) was over 100000 nM. The GI50 (T-47D breast) was 383 nM, the TGI (T-47D breast) was over 100000 nM and the GI50 (RXF 393 renal) was 561 nM. For the same compound, the TGI (RXF 393 renal) was 2170 nM, the GI50 (EKVX NSCLC) was 4030 nM and the TGI (EKVX NSCLC) was over 100000 nM. The GI50 (NCI-H23 lung) was 1460 nM, the TGI (NCI-H23 lung) was over 27600 nM and the GI50 (IGROV1 ovarian) was 497 nM. It also gave a GI50 (SF-295 CNS) of 395 nM.
